The source of these data is patent publication US8158169B2, “Chinese medicine composition and preparation method and use thereof” (priority 2006, dated 2012).

Molecules are shown by their SMILES.

Experiment [1] concerns hippocampus nerve cells. Briefly: Ultrastructure of hippocampus nerve cells, rats with Aβ toxicity impairment. The experiment is classed as in vivo. The note with it: compared with the model group. The source says:
There are margination and pyknosis of chromosome of nucleus of hippocampus nerve cells in rats of the model group; the volume of cell is lessened and the cytoplasm is concentrated; the mitochondria are mildly swelling in a few cells; the cell organelle such as the rough endoplasmic reticulum and ribosome are generally normal; and the presynaptic and postsynaptic membranes are not clear. The synaptic space disappears.

Experiment [2] relates to monoamine neurotransmitters and its metabolites in whole brain. Briefly: Monoamine neurotransmitters and metabolites in whole brain, rats with Aβ toxicity injury. The class given is in vivo. The note with it: dosage 0.08 mg/kg. From the text:
(§1) Acta Pharmacol Sin. 2004; 25: 1118˜23.

Experiment [3] relates to mice with ethanol induced memory retrieval impairment. The experiment can be described thus: Step through experiment, mice with ethanol induced memory retrieval impairment. The class given is in vivo. The following applies: ethanol model mice, dosage 0.08 mg/kg.
Another experiment concerns Na+-K+-ATP enzyme. The following applies: whole brain, Aβ1-40 rats; four weeks after drug administered; dosage 0.08 mg/kg.
Experiment [4] has as its system hippocampus nerve cells. Briefly: Ultrastructure of hippocampus nerve cells, rats with natural aging cognition impairment. The note with it: contrary to the model group.
For experiment [5], the system named is rats impaired by β-amyloid precursor protein (Aβ) toxicity. Briefly: Morris water maze, rats impaired by Aβ toxicity. The class given is in vivo. The note with it: Morris water maze swimming; Aβ 1-40 rats, four weeks; dosage 0.08 mg/kg. From the text:
(§2) The search strategy is mostly marginal or random. […]

Experiment [6] has as its system rats impaired by toxicity. The experiment can be described thus: Morris water maze, rats impaired by Aβ toxicity. The experiment is classed as in vivo. The following applies: Morris water maze swimming; Aβ 1-40 rats, four weeks; dosage 0.08 mg/kg.
Source text: as §2

For a further experiment, the system named is 2VO rats. Briefly: Morris water maze, VD rats with bilateral common carotid artery permanent ligation (2VO). The note with it: dosage 0.06 mg/kg.
The subject of experiment [7] is 5-HT and 5-HIAA in the whole brain. The experiment can be described thus: Monoamine neurotransmitters in whole brain of APP transgenic mice. The class given is in vivo. The following applies: positive Huperzine A group.
Source text: as §1

The subject of experiment [8] is mice with scopolamine hydrobromide induced memory impairment. The experiment can be described thus: Step down experiment, mice with scopolamine hydrobromide induced memory impairment. The following applies: scopolamine model mice, dosage 0.08 mg/kg.
The test system of another experiment is MDA. Briefly: Content of MDA of whole brain, rats with natural aging cognition impairment. The following applies: 12 weeks after drug administered, dosage 0.08 mg/kg.
For another experiment, the system named is SOD. Briefly: Activity of SOD of whole brain, rats with natural aging cognition impairment. The note with it: 12 weeks after drug administered, dosage 0.08 mg/kg.
The test system of experiment [9] is pyramidal cells of hippocampus. Briefly: HE staining, histomorphology of rats with D-galactose induced brain aging. The following applies: compared with the model group. The class given is in vivo. How it is done:
The experiment is performed as per Section 2, Chapter 7 of Pathological Tissue Sectioning and Staining Technology (Gong Zhi-jin et al.).
The pyramidal cells of hippocampus of rats in the blank group are tight in alignment, obvious with the upper and lower cell lines and rich in number of cells; the nuclear membrane are clear with distinct nucleolus. The pyramidal cells of hippocampus of rats in the model group is loosening in the alignment, oblique in the cellular structure, swelling in the cell body and irregular in the upper and lower cell lines; Some cells have nucleus pyknosis and deep staining.

The next experiment deals with Ach in whole brain. The experiment can be described thus: Content of ACh in whole brain, rats with Aβ toxicity injury. The following applies: Aβ1-40 rats, four weeks after drug administered, dosage 0.08 mg/kg.
The subject of another experiment is ACh in brain. The experiment can be described thus: Content of ACh in brain of 2VO rats. The following applies: 3 months after 2VO, two months after drug administered, dosage 0.06 mg/kg.
Setting [10] is: 15 days after drug administered.

Turning to `C/C=C1\[C@H]2C=C(C)C[C@]1(N)c1ccc(=O)[nH]c1C2` [Huperzine A], in the experiment on hippocampus nerve cells [1], the “ultrastructure of hippocampus nerve cells” value was “better morphology and structure, clearer cell membrane and pre- and post-synaptic membranes”. In addition, in [2], the 5-HIAA amounted to 27.3 ± 3.1 µg/L, the 5-HT is 41.7 ± 5.9 µg/L, the DA is 136.2 ± 8.5 µg/L and the DOPAC was determined as 13.4 ± 1.3 µg/L. In [2], the HVA is 15.4 ± 9.4 µg/L and the NE turned out to be 75.9 ± 11.3 µg/L. Moreover, the Latency in experiment [3] (setting [10]) was determined as 214.1 ± 127.8 s. Also, the “Number of Mistakes” value in experiment [3] (in 5 minutes, 15 days) is listed as 1.0 ± 1.3. Besides, the “Activity of Na+—K+-ATP” value with Na+-K+-ATP enzyme came out at 0.207 ± 0.025 μmoLPi/mgProt/h. In addition, in the experiment with hippocampus nerve cells [4], the “ultrastructure of hippocampus nerve cells” value was “better morphology and structure and clearer cell membrane”. Also, in experiment [5], the Length of time is 16.3 ± 10.6. The compound also gave a Length of route in [6] of 436.7 ± 284.4. For the same compound, in the experiment with 2VO rats (1 month after ligation), the “Time of passing through maze, 1 month after ligation” value worked out at 61.3 ± 25.2 s. Besides, the “Time of passing through maze, 2 months after ligation” value with 2VO rats (2 months after ligation (one month after drug administered)) is on record as 29.1 ± 18.5 s. For the same compound, the “Time of passing through maze, 3 months after ligation” value in the experiment on 2VO rats (3 months after ligation (two months after drug administered)) came to 10.8 ± 5.6 s. The “5-HT and 5-HIAA in the whole brain” value in experiment [7] was “decrease to different degrees”. The compound further had a Latency in experiment [8] (setting [10]) of 271.8 ± 54.6 s. The “Number of Error” value in experiment [8] (in 5 minutes, 15 days) is given as 0.6 ± 0.9. Besides, in the experiment with MDA, the “Content of MDA” value is on record as 3.50 ± 0.43 nmol/mgProt. Further, in the experiment with SOD, the “Activity of SOD” value stood at 43.68 ± 2.55 NU/mgProt. For the same compound, the “histomorphology of pyramidal cells of hippocampus (HE staining)” value in experiment [9] is on record as “in order of alignment with clearer contour of cells”. In the experiment on Ach in whole brain, the “Content of ACh” value was 180.0 ± 23.5 µg/L. Further, the “Content of ACh” value with ACh in brain is 221.4 ± 41.9 µg/L.
